Where two headings read alike, the source gives them in different places.
Assays:
mouse cGAS = target: T1, mouse cGAS (Mus musculus, UniProt Q8C6L5); test: RapidFire mass spectrometry (RF-MS) cGAS enzymatic assay, cGAMP product formation; format: biochemical; details: for kcat / Km: substrate of mouse cGAS, no inhibitor; for Km: allosteric sigmoidal fitting; for inhibition at 12.5 µM: read-out: % inhibition at 12.5 µM; for effect of structural modification on cGAS inhibitory potency: compared with RU.365
T1 construct: recombinant full-length mouse cGAS in reaction buffer; His6-SUMO (N, cleaved yes); made in house; host or cells: E. coli BL21(DE3) RIL
Protocol: The liquid was collected at the well bottom using centrifugation for 30 s at 180×g. […] Plates were centrifuged for 30 s at 180×g to collect all liquid at the bottom of the wells. […] The reaction was stopped by addition of 65 µl of 0.5% (v/v) formic acid per well. The plates were centrifuged for 30 s at 180×g and sealed with a Velocity11 PlateLoc thermal plate sealer.
The solvent used for loading/washing process was an aqueous solution of 5 mM ammonium acetate, pH 10. […] Each sample of approximately 35 µl were aspirated from a 384-well plate and separated using a Graphitic carbon Type D cartridge. After each sample was loaded onto the cartridge it was washed for 4 s at 1.5 ml min^−1 using the aqueous solvent. ATP, GTP and cGAMP were eluted for 5 s using the organic solvent at a flow rate of 1.5 ml min^−1. The cartridge was then re-equilibrated with the aqueous solvent for 5 s at a flow rate of 1.5 ml min^−1. All samples were analyzed using a negative ionization mode in the mass spectrometer, with a gas temperature of 350 °C, nebulizer pressure of 35 psig, gas flow rate of 15 l min^−1. […] The Agilent RapidFire Integrator software was used to calculate the area under the curve (AUC) of the extracted ion counts for each analyte. Data points represent values of product formation. Catalytic rates expressed as percent product formation were calculated using the AUC of cGAMP and using the AUC’s of ATP and GTP to normalize for variations in the capacity of the solid phase extraction column during a screening run, as shown in the following formula: product formation (%) = [(AUCcGAMP × 100)/(AUCcGAMP + ½ AUCATP + ½ AUCGTP)].
To determine the percent inhibition of mouse cGAS the data was normalized against the positive control (column 24) and negative control (column 23). […] The quality of the screen was assessed by Z′ factor[57] calculated as follows: Z′ = 1−[3∗(standard deviation positive control + standard deviation negative control)/(average positive control—average negative control)].

45-bp dsDNA = test: DNA intercalation: acridine orange displacement from dsDNA by fluorescence polarization; format: binding; details: Supplementary Table 2; for % intercalation at 30 µM: acridine orange displacement compared to mitoxantrone; for Polarization: compound 30 µM
Protocol: Ten microliters of HEN buffer (10 mM HEPES pH 7.5, 1 mM EDTA pH 7.5, 100 mM NaCl) were dispensed per well using a Thermo Multidrop Combi dispenser (Thermo Scientific). The liquid was collected at the well bottom using centrifugation for 30 s at 180×g. […] The final concentration of compounds in the assay was 30 µM. […] The liquid was collected at the well bottom using centrifugation for 30 s at 180×g. […] The liquid was collected at the well bottom using centrifugation for 30 s at 180 × g and the plates were incubated for 30 min. Mitoxantrone, a known DNA intercalator was used at 50 µM as a positive control, while DMSO alone was used as negative control. FP was measured using a Biotek Synergy Neo plate reader. […] All FP values are expressed in millipolarization (mP) units. The mP values were calculated using the equation mP = 1000 × [(I S−I SB)−(I P−I PB)]/[I S—I SB) + (I P−I PB)], where I S and […] to the parallel and perpendicular emission intensity, respectively, and I SB and I SP corresponds to parallel emission intensity perpendicular emission intensity of the buffer, respectively. The experimental G-factor, defined as G = I S/I P, was set to 1.0 in all experiments.

[1] = Supplementary Table 2, batch of compounds stored in the screening library, read-out: IC50
[2] = Supplementary Table 2, compound 12.5 µM
[3] = Supplementary Table 4, analogs of RU166365, m-cGAS inhibition, read-out: IC50
[4] = Supplementary Table 3, analogs more potent than RU166365, read-out: IC50

T1 sequence (Q8C6L5 whole entry): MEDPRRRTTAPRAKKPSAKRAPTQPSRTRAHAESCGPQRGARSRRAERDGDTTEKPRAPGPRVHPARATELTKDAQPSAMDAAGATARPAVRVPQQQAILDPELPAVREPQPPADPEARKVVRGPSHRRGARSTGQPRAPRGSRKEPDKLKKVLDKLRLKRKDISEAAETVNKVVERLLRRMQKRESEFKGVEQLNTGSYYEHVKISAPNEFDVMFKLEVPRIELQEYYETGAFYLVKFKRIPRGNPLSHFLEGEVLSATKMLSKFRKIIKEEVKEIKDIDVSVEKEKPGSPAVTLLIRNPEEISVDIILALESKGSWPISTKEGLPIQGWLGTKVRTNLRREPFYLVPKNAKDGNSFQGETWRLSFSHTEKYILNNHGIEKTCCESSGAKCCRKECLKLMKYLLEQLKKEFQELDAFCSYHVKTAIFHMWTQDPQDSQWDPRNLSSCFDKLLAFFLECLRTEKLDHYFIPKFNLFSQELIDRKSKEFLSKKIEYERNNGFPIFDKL

IC50 (mouse cGAS; [1]) [nM] | IC50 (mouse cGAS; [3]) [nM] | SMILES | % intercalation at 30 µM (45-bp dsDNA) [%] | Polarization (45-bp dsDNA) [mP] | also measured
– | – | Nc1ncnc2c1ncn2[C@@H]1O[C@H](COP(=O)(O)OP(=O)(O)OP(=O)(O)O)[C@@H](O)[C@H]1O [ATP] | – | – | kcat (mouse cGAS): 0.383 s⁻¹; Km (mouse cGAS): 86 ± 6.7 µM
– | – | Nc1nc2c(ncn2[C@@H]2O[C@H](COP(=O)(O)OP(=O)(O)OP(=O)(O)O)[C@@H](O)[C@H]2O)c(=O)[nH]1 [GTP] | – | – | kcat (mouse cGAS): 0.383 s⁻¹; Km (mouse cGAS): 96.4 ± 5.1 µM
– | – | Oc1c(Cl)cc(Cl)c(Cl)c1Cc1c(O)c(Cl)cc(Cl)c1Cl [RU161] | 69.6 | 108 | IC50 (mouse cGAS): 390 nM; inhibition at 12.5 µM (mouse cGAS): 93%
800 | – | COC(=O)C1=C(C)NC(C)=C(C(=O)OC)C1c1ccccc1[N+](=O)[O-] [RU199] | – | – | inhibition at 12.5 µM (mouse cGAS; [2]): 91%
– | – | O=[N+]([O-])c1cc([As](=O)(O)O)ccc1O [RU297] | -9.8 | 271 | –
2830 | – | Nc1c2ccccc2nc2ccccc12 [RU431] | – | 145 | inhibition at 12.5 µM (mouse cGAS; [2]): 78%
720 | – | O=C1c2c(O)ccc(O)c2C(=O)c2c(NCCNCCO)ccc(NCCNCCO)c21 [RU627] | 102.5 | 41 | inhibition at 12.5 µM (mouse cGAS; [2]): 94%
8760 | – | O=C(O)c1cc(O)c2c(c1)[C@@H]([C@H]1c3cc(C(=O)O)cc(O)c3C(=O)c3c(O[C@H]4O[C@H](CO)[C@@H](O)[C@H](O)[C@H]4O)cccc31)c1cccc(O[C@H]3O[C@H](CO)[C@@H](O)[C@H](O)[C@H]3O)c1C2=O [RU646] | -13.5 | 278 | inhibition at 12.5 µM (mouse cGAS; [2]): 82%
– | – | O=[N+]([O-])c1ccc(O)c([N+](=O)[O-])c1 [RU803] | -4.7 | 260 | IC50 (mouse cGAS): 870 nM; inhibition at 12.5 µM (mouse cGAS): 96%
6800 | – | CCN(CC)CCNc1ccc(CO)c2sc3ccccc3c(=O)c12 [RU869] | 81.2 | 85 | inhibition at 12.5 µM (mouse cGAS; [2]): 66%
– | > 25000 | CCCc1c(C)nn(-c2nc3ccccc3[nH]2)c1O [RU166418] | – | – | –
– | – | CC(C)c1ccc2oc3nc(N)c(C(=O)O)cc3c(=O)c2c1 [RU185491] | 1.5 | 248 | –
– | > 25000 | Cc1ccc(-c2cc(O)n(-c3nc4ccccc4[nH]3)n2)cc1 [RU281319] | – | – | –
– | > 25000 | Cc1cc(O)n(-c2nc3ccccc3[nH]2)n1 [RU281324] | – | – | –
– | 7340 | COc1ccc2nc(-n3nc(C)c(C4OC(=O)c5ccccc54)c3O)[nH]c2c1 (stereo not drawn) [RU320459] | – | – | –
– | 5610 | COc1cccc2nc(-n3nc(C)c(C4OC(=O)c5ccccc54)c3O)[nH]c12 (stereo not drawn) [RU320460] | – | – | –
– | – | Cc1ccc2nc(-n3nc(C)c(C4OC(=O)c5ccccc54)c3O)[nH]c2c1 (stereo not drawn) [RU320461] | – | – | IC50 (mouse cGAS; [4]): 860 nM; effect of structural modification on cGAS inhibitory potency (mouse cGAS): increased inhibitory potency
– | – | Cc1nn(-c2nc3ccc(Br)cc3[nH]2)c(O)c1C1OC(=O)c2ccccc21 (stereo not drawn) [RU320462] | – | – | IC50 (mouse cGAS; [4]): 640 nM; effect of structural modification on cGAS inhibitory potency (mouse cGAS): increased inhibitory potency
– | 2760 | Cc1nn(-c2nc3ccccc3[nH]2)c(O)c1C1OC(=O)c2c(Br)cccc21 (stereo not drawn) [RU320463] | – | – | –
– | 2240 | Cc1nn(-c2nc3ccccc3[nH]2)c(O)c1C1OC(=O)c2ccc(Br)cc21 (stereo not drawn) [RU320464] | – | – | –
– | > 25000 | Cc1nn(-c2nc3ccccc3[nH]2)c(O)c1C1NC(=O)c2ccccc21 (stereo not drawn) [RU320465] | – | – | effect of structural modification on cGAS inhibitory potency (mouse cGAS): abolished inhibitory activity

SMILES | IC50 (mouse cGAS; [1]) [nM] | IC50 (mouse cGAS; [3]) [nM] | % intercalation at 30 µM (45-bp dsDNA) [%] | Polarization (45-bp dsDNA) [mP] | also measured
CCN(CC)CCCC(C)Nc1c2ccc(Cl)cc2nc2ccc(OC)cc12 (stereo not drawn) [RU316] | 6220 | – | – | 140 | % inhibition at 12.5 µM (mouse cGAS; [2]): 68%
CC[n+]1c(-c2ccccc2)c2cc(N)ccc2c2ccc(N)cc21 [RU662] | 430 | – | 101.9 | 42 | inhibition at 12.5 µM (mouse cGAS; [2]): 97%
C[n+]1cc2c3c(ccc2c2ccc4cc5c(cc4c21)OCO5)OCO3 [RU871] | 3370 | – | 95.0 | 56 | inhibition at 12.5 µM (mouse cGAS; [2]): 85%
